Assay results from patent US9828413B2, “Vancomycin derivative, and preparation method and application thereof” (ACESYS PHARMA INC., priority 2013, dated 2017).
Converted amounts (≈) assume the structure as drawn.

Legend:
[1] = system: Staphylococcus aureus Mu50; assay: In vitro activity assay, minimum inhibitory concentration (MIC), cup-plate method; assay type: cell-based; conditions: strain Mu50, trypticase soy broth, read-out: MIC values, Staphylococcus aureus Mu50
Protocol: (§1) In vitro activity assay was performed according to Microbiological Identification of Antibiotics, Appendix XIA, Volume II, Chinese Pharmacopoeia 2010. Vancomycin-sensitive Staphylococcus aureus strains (Newman and Mu 50) were selected as the test strains, and trypticase soy broth was selected as the culture medium.

[2] = system: Staphylococcus aureus Newman; assay: as above; assay type: cell-based; conditions: strain Newman, trypticase soy broth, read-out: MIC values, Staphylococcus aureus Newman
Protocol: as §1

physchem = conditions: 25 °C, water, thermodynamic from solid

SMILES	MIC [1] [µg/mL]	MIC [2] [µg/mL]	solubility at 30 min (physchem) [mg/mL]
CCCCCCOC(CNC1(C)CC(OC2C(Oc3c4cc5cc3Oc3ccc(cc3Cl)[C@@H](O)[C@@H]3NC(=O)C(NC(=O)C5NC(=O)C(CC(N)=O)NC(=O)[C@@H](NC(=O)[C@@H](CC(C)C)NC)C(O)c5ccc(c(Cl)c5)O4)c4ccc(O)c(c4)-c4c(O)cc(O)cc4C(C(=O)O)NC3=O)OC(CO)C(O)C2O)OC(C)C1O)C(=O)OC (stereo partly drawn) [Compound V31]	8 (≈ 4.89 µM)	2 (≈ 1.22 µM)	< 1
CCCCCCOC(CNC1(C)CC(OC2C(Oc3c4cc5cc3Oc3ccc(cc3Cl)[C@@H](O)[C@@H]3NC(=O)C(NC(=O)C5NC(=O)C(CC(N)=O)NC(=O)[C@@H](NC(=O)[C@H](N)CC(C)C)C(O)c5ccc(c(Cl)c5)O4)c4ccc(O)c(c4)-c4c(O)cc(O)cc4C(C(=O)O)NC3=O)OC(CO)C(O)C2O)OC(C)C1O)C(=O)OC (stereo partly drawn) [Compound V59]	8 (≈ 4.93 µM)	2 (≈ 1.23 µM)	< 10
CCCCCCCCCCOC(CNC1(C)CC(OC2C(Oc3c4cc5cc3Oc3ccc(cc3Cl)[C@@H](O)[C@@H]3NC(=O)C(NC(=O)C5NC(=O)C(CC(N)=O)NC(=O)[C@@H](NC(=O)[C@H](N)CC(C)C)C(O)c5ccc(c(Cl)c5)O4)c4ccc(O)c(c4)-c4c(O)cc(O)cc4C(C(=O)O)NC3=O)OC(CO)C(O)C2O)OC(C)C1O)C(=O)O (stereo partly drawn) [Compound V68]	8 (≈ 4.81 µM)	4 (≈ 2.4 µM)	5 to 10 (≈ 3010 to 6010 µM)
CN[C@H](CC(C)C)C(=O)N[C@@H]1C(=O)NC(CC(N)=O)C(=O)NC2C(=O)NC3C(=O)N[C@H](C(=O)NC(C(=O)O)c4cc(O)cc(O)c4-c4cc3ccc4O)[C@H](O)c3ccc(c(Cl)c3)Oc3cc2cc(c3OC2OC(CO)C(O)C(O)C2OC2CC(C)(NCC(OCc3ccc(-c4ccc(Cl)cc4)cc3)C(=O)OC)C(O)C(C)O2)Oc2ccc(cc2Cl)C1O (stereo partly drawn) [Compound V13]	2 (≈ 1.14 µM)	< 0.125	50 to 60 (≈ 28500 to 34200 µM)
CCCCCCOC(CNC1(C)CC(OC2C(Oc3c4cc5cc3Oc3ccc(cc3Cl)[C@@H](O)[C@@H]3NC(=O)C(NC(=O)[C@@H]5NC(=O)[C@H](CC(N)=O)NC(=O)C(NC(=O)[C@H](N)CC(C)C)[C@H](O)c5ccc(c(Cl)c5)O4)c4ccc(O)c(c4)-c4c(O)cc(O)cc4[C@H](C(=O)O)NC3=O)OC(CO)C(O)C2O)OC(C)C1O)C(=O)O (stereo partly drawn) [Compound V60]	8 (≈ 4.98 µM)	2 (≈ 1.24 µM)	> 20
CCCCOC(CNC1(C)CC(OC2C(Oc3c4cc5cc3Oc3ccc(cc3Cl)[C@@H](O)[C@@H]3NC(=O)C(NC(=O)C5NC(=O)C(CC(N)=O)NC(=O)[C@@H](NC(=O)[C@H](N)CC(C)C)C(O)c5ccc(c(Cl)c5)O4)c4ccc(O)c(c4)-c4c(O)cc(O)cc4C(C(=O)O)NC3=O)OC(CO)C(O)C2O)OC(C)C1O)C(=O)O (stereo partly drawn) [Compound V58]	> 128	64 (≈ 40.5 µM)	50 to 60 (≈ 31700 to 38000 µM)
CN[C@H](CC(C)C)C(=O)N[C@@H]1C(=O)NC(CC(N)=O)C(=O)NC2C(=O)NC3C(=O)N[C@H](C(=O)NC(C(=O)O)c4cc(O)cc(O)c4-c4cc3ccc4O)[C@H](O)c3ccc(c(Cl)c3)Oc3cc2cc(c3OC2OC(CO)C(O)C(O)C2OC2CC(C)(NCC(OC)C(=O)OC)C(O)C(C)O2)Oc2ccc(cc2Cl)C1O (stereo partly drawn) [Compound V26]	64 (≈ 40.9 µM)	16 (≈ 10.2 µM)	4.5 (≈ 2870 µM)
CN[C@H](CC(C)C)C(=O)NC1C(=O)N[C@@H](CC(N)=O)C(=O)N[C@H]2C(=O)NC3C(=O)N[C@H](C(=O)N[C@@H](C(=O)O)c4cc(O)cc(O)c4-c4cc3ccc4O)[C@H](O)c3ccc(c(Cl)c3)Oc3cc2cc(c3OC2OC(CO)C(O)C(O)C2OC2CC(C)(NCC(OCc3ccc(-c4ccc(Cl)cc4)cc3)C(=O)O)C(O)C(C)O2)Oc2ccc(cc2Cl)[C@H]1O (stereo partly drawn) [Compound V15]	2 (≈ 1.15 µM)	< 0.125	≥ 60
CC(C)C[C@@H](N)C(=O)NC1C(=O)N[C@@H](CC(N)=O)C(=O)N[C@H]2C(=O)NC3C(=O)N[C@H](C(=O)N[C@@H](C(=O)O)c4cc(O)cc(O)c4-c4cc3ccc4O)[C@H](O)c3ccc(c(Cl)c3)Oc3cc2cc(c3OC2OC(CO)C(O)C(O)C2OC2CC(C)(NCC(OCc3ccc(-c4ccccc4)cc3)C(=O)O)C(O)C(C)O2)Oc2ccc(cc2Cl)[C@H]1O (stereo partly drawn) [Compound V53]	2 (≈ 1.18 µM)	< 0.125	20 (≈ 11800 µM)

Second part, the compound after the results:

MIC [1] [µg/mL]	MIC [2] [µg/mL]	solubility at 30 min (physchem) [mg/mL]	SMILES
2 (≈ 1.19 µM)	< 0.125	< 5	CN[C@H](CC(C)C)C(=O)N[C@@H]1C(=O)NC(CC(N)=O)C(=O)NC2C(=O)NC3C(=O)N[C@H](C(=O)NC(C(=O)O)c4cc(O)cc(O)c4-c4cc3ccc4O)[C@H](O)c3ccc(c(Cl)c3)Oc3cc2cc(c3OC2OC(CO)C(O)C(O)C2OC2CC(C)(NCC(OCc3ccc(Cl)cc3)C(=O)OC)C(O)C(C)O2)Oc2ccc(cc2Cl)C1O (stereo partly drawn) [Compound V20]
32 (≈ 19.5 µM)	8 (≈ 4.87 µM)	< 0.1	CN[C@H](CC(C)C)C(=O)NC1C(=O)N[C@@H](CC(N)=O)C(=O)N[C@H]2C(=O)NC3C(=O)N[C@H](C(=O)N[C@@H](C(=O)O)c4cc(O)cc(O)c4-c4cc3ccc4O)[C@H](O)c3ccc(c(Cl)c3)Oc3cc2cc(c3OC2OC(CO)C(O)C(O)C2OC2CC(C)(NCC(OCc3ccccc3)C(=O)OC)C(O)C(C)O2)Oc2ccc(cc2Cl)[C@H]1O (stereo partly drawn) [Compound V9]
2 (≈ 1.06 µM)	< 0.125	5 to 20 (≈ 2660 to 10600 µM)	CN[C@H](CC(C)C)C(=O)NC1C(=O)N[C@@H](CC(N)=O)C(=O)N[C@H]2C(=O)NC3C(=O)N[C@H](C(=O)N[C@@H](C(=O)O)c4cc(O)cc(O)c4-c4cc3ccc4O)[C@H](OC3CC(C)(N)C(O)C(C)O3)c3ccc(c(Cl)c3)Oc3cc2cc(c3OC2OC(CO)C(O)C(O)C2OC2CC(C)(NCC(OCc3cccc(-c4ccc(Cl)cc4)c3)C(=O)O)C(O)C(C)O2)Oc2ccc(cc2Cl)[C@H]1O (stereo partly drawn) [Compound V65]
8 (≈ 4.52 µM)	4 (≈ 2.26 µM)	20 (≈ 11300 µM)	CN[C@H](CC(C)C)C(=O)NC1C(=O)N[C@@H](CC(N)=O)C(=O)N[C@H]2C(=O)NC3C(=O)N[C@H](C(=O)N[C@@H](C(=O)O)c4cc(O)cc(O)c4-c4cc3ccc4O)[C@H](OC3CC(C)(N)C(O)C(C)O3)c3ccc(c(Cl)c3)Oc3cc2cc(c3OC2OC(CO)C(O)C(O)C2OC2CC(C)(NCC(OCc3ccccc3)C(=O)O)C(O)C(C)O2)Oc2ccc(cc2Cl)[C@H]1O (stereo partly drawn) [Compound V61]
2 (≈ 1.06 µM)	< 0.125	5 to 20 (≈ 2660 to 10600 µM)	CN[C@H](CC(C)C)C(=O)N[C@@H]1C(=O)NC(CC(N)=O)C(=O)NC2C(=O)NC3C(=O)N[C@H](C(=O)NC(C(=O)O)c4cc(O)cc(O)c4-c4cc3ccc4O)[C@H](OC3CC(C)(N)C(O)C(C)O3)c3ccc(c(Cl)c3)Oc3cc2cc(c3OC2OC(CO)C(O)C(O)C2OC2CC(C)(NCC(OCc3ccc(-c4ccc(Cl)cc4)cc3)C(=O)O)C(O)C(C)O2)Oc2ccc(cc2Cl)C1O (stereo partly drawn) [Compound V63]
8 (≈ 4.7 µM)	4 (≈ 2.35 µM)	> 10	CN[C@H](CC(C)C)C(=O)NC1C(=O)N[C@@H](CC(N)=O)C(=O)N[C@H]2C(=O)NC3C(=O)N[C@H](C(=O)N[C@@H](C(=O)O)c4cc(O)cc(O)c4-c4cc3ccc4O)[C@H](O)c3ccc(c(Cl)c3)Oc3cc2cc(c3OC2OC(CO)C(O)C(O)C2OC2CC(C)(NCC(OCc3ccc(-c4ccccc4)cc3)C(=O)O)C(O)C(C)O2)Oc2ccc(cc2Cl)[C@H]1O (stereo partly drawn) [Compound V24]
8 (≈ 4.66 µM)	4 (≈ 2.33 µM)	< 5	CN[C@H](CC(C)C)C(=O)N[C@@H]1C(=O)NC(CC(N)=O)C(=O)NC2C(=O)NC3C(=O)N[C@H](C(=O)NC(C(=O)O)c4cc(O)cc(O)c4-c4cc3ccc4O)[C@H](O)c3ccc(c(Cl)c3)Oc3cc2cc(c3OC2OC(CO)C(O)C(O)C2OC2CC(C)(NCC(OCc3ccc(-c4ccccc4)cc3)C(=O)OC)C(O)C(C)O2)Oc2ccc(cc2Cl)C1O (stereo partly drawn) [Compound V25]
